Test results reported in patent US4338330A, “Benzimidazole derivatives, their use, and compositions containing these derivatives” (Continental Pharma, priority 1979, dated 1982).
“Also recorded” adds a separate entry of the source.

Assays:
β1 cardiac receptors [1] = molecular target: T1, β1 cardiac receptors (Cavia porcellus, UniProt H0W3H1); experiment: β-lytic activity: inhibition of inotrope response to isoproterenol of electrically stimulated left auricles (pA2); parameters: species or system guinea pig; details: isoproterenol, electrically stimulated left auricles; read-out: β-lytic activity, pA2 auricles inotrope response (converted)
T1 construct: chronotropic response to noradrenaline of guinea pig auricles; from tissue; host or cells: guinea pig auricles (chronotropic response); electrically stimulated guinea pig left auricles (inotropic response)
Experimental: (§1) The effect on β1 cardiac receptors is measured by inhibition of the chronotropic response to noradrenaline of guinea pig auricles and of the inotrope response to isoproterenol of guinea pig left auricles which were electrically stimulated. The cardioselectivity is appreciated by measuring the antagonist effect at the level of β2 receptors of the guinea pig trachea. To this end, a tracheal chain is contracted by a maximum concentration of histamine and inhibition of relaxation by isoproterenol is measured. The values calculated for cardioselectivity are obtained by considering the difference between pA2 values of the chronotrope response and the relaxation on the one hand (1st column) and of the inotrope response and relaxation on the other hand (2nd column).

[2] = molecular target: T2, β2 receptors of the guinea pig trachea (Cavia porcellus, UniProt Q8K4Z4); experiment: Antagonist effect on relaxation of trachea by isoproterenol (pA2); details: histamine-contracted tracheal chain, read-out: β-lytic activity, pA2 trachea relaxation (converted)
T2 construct: β2 receptors of the guinea pig trachea; from tissue; host or cells: guinea pig tracheal chain contracted by histamine
Experimental: as §1

[3] = tested on: guinea pig ileum contractions induced by histamine; experiment: Antispasmodic activity against ileum contractions induced by histamine
Experimental: (§2) The antispasmodic activity of the studied substances was examined against guinea pig ileum contractions induced by histamine and acetylcholine.
(§3) These experiences allow to make it obvious an antihistaminic, anticholinergic or musculotrope activity. The response to the contracting agent (sub-maximum concentration) is obtained every 5 minutes before and after injection of increasing concentrations of tested products (10^-7 M to 10^-4 M). The inhibition percentage under the influence of tested products is calculated and the theoretical concentration giving 50% of inhibition is graphically determined for each experience. These values are expressed in -log CI50 (M).

[4] = tested on: β1 cardiac receptors versus β2 tracheal receptors; experiment: Cardioselectivity (auricles versus trachea); parameters: species or system guinea pig; details: for Cardioselectivity: Table III, from pA2 auricles and trachea; for times more active on β cardiac receptors than on β2 receptors: from difference of pA2 on auricles and trachea; for Cardioselectivity (in words): guinea pig auricles vs trachea
Experimental: as §1, with “column). For these various experiences, pA2 is calculated according to the Van Rossum method (Arch. Inern. Pharmacodyn., 143, 299-330, 1963).” for “column).”

[5] = LD50 in mice, oral (Lichtfield and Wilcoxon method); type: in vivo; details: mouse, in vivo, po, read-out: LD50
Experimental: LD50 were determined according to the Lichtfield and Wilcoxon method (J. Pharmacol. Exp. Ther. 96, 99, 1949) and expressed in mg/kg. The products were administered to mice orally.

[6] = tested on: isolated guinea pig auricles; experiment: Chronotrope effect of the substance on isolated auricles; details: 10^-6 M, 20 minutes, Tyrode, 29° C.
Experimental: The β-lytic effect was searched on the chronotropic response to noradrenaline of isolated guinea pig auricles. Auricles were incubated for 20 minutes in a Tyrode solution at 29° C. in the presence of the substance to be tested at the concentration of 10^-6 M. A positive (+) or negative (-) chronotrope effect of the substance was noted using the following scores: […]

[7] = Antihypertensive activity, oral, unanesthetized spontaneously hypertensive rats; type: in vivo; details: 60 mg/kg oral; for Antihypertensive activity (score): spontaneously hypertensive rats; for Antihypertensive activity (index): systolic pressure difference (cmHg) every 30 min multiplied by time coefficient 1 to 6
Experimental: […] Only rats having a systolic pressure of 180 to 220 mm Hg are used. Two rats are used by product. The treatments are administered without the knowledge of the person making the measure.
The antihypertensive effects were recorded according to a score followed by an index. The scoring system is as follows.
The index is calculated by multiplying the systolic pressure difference (cmHg) measured every 30 minutes after the treatment, by a coefficient of 1 to 6 corresponding to times of 30 to 180 minutes.

[8] = tested on: guinea pig ileum contractions induced by acetylcholine; experiment: Antispasmodic activity against ileum contractions induced by acetylcholine
Experimental: as §2, §3

β1 cardiac receptors [9] = molecular target: T1, β1 cardiac receptors; experiment: β-lytic activity: inhibition of chronotropic response to noradrenaline of auricles (pA2); parameters: species or system guinea pig; details: for Kb: noradrenaline, read-out: β-lytic activity, pA2 auricles chronotrope response (converted)
Experimental: as §1

[10] = tested on: chronotropic response to noradrenaline of isolated guinea pig auricles; experiment: β-lytic effect on the chronotropic response to noradrenaline of isolated auricles
Experimental: The β-lytic effect was searched on the chronotropic response to noradrenaline of isolated guinea pig auricles. Auricles were incubated for 20 minutes in a Tyrode solution at 29° C. in the presence of the substance to be tested at the concentration of 10^-6 M. A positive (+) or negative (-) chronotrope effect of the substance was noted using the following scores:
Then, the chronotrope effect of cumulative increasing concentrations of noradrenaline was recorded. The pD2 (-log CE50) value was calculated. A score of β-lytic activity of the substance was given as follows:
If the score at concentration of 10^-6 M was 3 or 4, the effect of the substance was examined at concentration of 10^-7 M and a score was recorded according to the same procedure.

platelet agglutination = experiment: Inhibition of platelet agglutination in plasma (turbidimetric method, Thrombofax); type: cell-based; details: plasma rich in platelets, preincubated 4 minutes
Experimental: The measure of platelet agglutination inhibition was made according to the turbidimetric method of G. V. R. Born and M. J. Cross (J. Physiol., 168, 178, […]). The plasma rich in platelets was preincubated for 4 minutes before addition of the inducing agent, namely Thrombofax. The variations of turbidity were recorded for a period of 10 minutes with a "Chronolog" agglutinometer. The inhibition of the maximum amplitude of agglutination was measured.

[11] = Peripheral vasodilator activity, anesthetized dog, femoral arterial circulation; type: in vivo; details: 30 μg/kg injected directly
Experimental: The peripheral vasodilator activity was measured on anesthetized dog at the level of femoral arterial circulation. To this end, the femoral artery the collaterals of which have been ligated is perfused at constant rate with blood taken from aorta. The perfusion pressure measured at the level of the femoral artery thus varies as a function of the resistance of the perfused area. The tested products and the corresponding solvents are directly injected at the dose of 30 μg/kg. The cardiac output being maintained constant, a vasodilation is thus measured by a decrease of the perfusion pressure. The latter is scored in comparison with the action of papaverine, considered as a reference and injected one time by group of 4 products. When interesting, the products are tested with other doses under the same conditions.
The vasodilator activity is appreciated as follows: […]

[12] = tested on: tachycardia caused by isoprotenenol; experiment: β-lytic activity in vigile rat (antagonism of tachycardia caused by isoproterenol); type: in vivo; details: 10 mg/kg orally; isoproterenol 0.1 mg/kg transcutaneously
cardiac receptors = experiment: Cardioselectivity in vivo, anesthetised dog: cardiac receptors; details: 30 μg/kg i.v.
peripheral β2 receptors = experiment: Cardioselectivity in vivo, anesthetised dog: peripheral β2 receptors; details: 30 μg/kg i.v.

T1 sequence (H0W3H1 1-470): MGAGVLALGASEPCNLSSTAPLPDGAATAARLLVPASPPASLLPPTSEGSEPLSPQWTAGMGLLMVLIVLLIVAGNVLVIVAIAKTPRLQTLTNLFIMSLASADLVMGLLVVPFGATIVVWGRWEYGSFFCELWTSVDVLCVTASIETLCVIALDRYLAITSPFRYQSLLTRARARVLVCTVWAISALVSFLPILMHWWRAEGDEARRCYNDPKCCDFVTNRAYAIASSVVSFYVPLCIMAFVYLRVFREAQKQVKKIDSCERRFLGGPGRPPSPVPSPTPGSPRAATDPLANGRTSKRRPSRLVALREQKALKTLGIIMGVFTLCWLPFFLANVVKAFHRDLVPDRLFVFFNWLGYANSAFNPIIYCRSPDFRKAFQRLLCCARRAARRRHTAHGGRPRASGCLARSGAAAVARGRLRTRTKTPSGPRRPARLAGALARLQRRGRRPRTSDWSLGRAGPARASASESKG
T2 sequence (Q8K4Z4 whole entry): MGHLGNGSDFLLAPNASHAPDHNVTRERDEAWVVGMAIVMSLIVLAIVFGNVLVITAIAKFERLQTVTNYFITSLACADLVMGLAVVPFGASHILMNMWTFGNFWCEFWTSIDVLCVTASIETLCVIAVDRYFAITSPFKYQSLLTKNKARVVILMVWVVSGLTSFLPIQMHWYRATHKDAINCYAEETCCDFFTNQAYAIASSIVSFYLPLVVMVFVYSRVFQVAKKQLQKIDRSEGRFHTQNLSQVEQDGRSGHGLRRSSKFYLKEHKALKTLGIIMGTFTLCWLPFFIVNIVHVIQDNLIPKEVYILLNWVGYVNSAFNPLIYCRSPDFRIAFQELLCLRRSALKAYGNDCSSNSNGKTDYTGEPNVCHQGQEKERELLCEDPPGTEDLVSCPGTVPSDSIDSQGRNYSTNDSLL

Row | SMILES | Kb (β1 cardiac receptors [1]) [nM] | Kb [2] [nM] | Antispasmodic activity, Hist. (-log CI50 (M)) [3] | Cardioselectivity [4] | times more active on β cardiac receptors than on β2 receptors [4] | Cardioselectivity (in words) [4] | LD50 [5] [mg/kg] | Chronotrope effect (score) [6] | Antihypertensive activity (score) [7] | Antihypertensive activity (index) [7] | Antispasmodic activity, Ac. Chol. (-log CI50 (M)) [8] | Activity on β cardiac receptors (in words) (β1 cardiac receptors [9]) | Kb (β1 cardiac receptors [9]) [nM] | β-lytic effect (score) ([10]; 10^-6 M) | β-lytic effect (score) ([10]; 10^-7 M) | Inhibition of platelet agglutination (platelet agglutination) | Peripheral vasodilator activity [11] | β-lytic activity in vigile rat [12] | Blocking of stimulation of cardiac receptors (cardiac receptors) | Effect on stimulation of peripheral β2 receptors (peripheral β2 receptors)
1 | COc1ccc(CCNCC(O)COc2ccc(-c3nc4ccccc4[nH]3)cc2)cc1OC (stereo not shown) [Compound 5, 2-[[4-{3-[2-(3,4-dimethoxyphenyl)ethylamino]-2-hydroxypropoxy}phenyl]]benzimidazole] | 39.8 | > 100000 | 5.80 -log CI50 (M) | > 1.91 | more than 5600 times | important cardioselectivity; also recorded: much higher than that of metopropol and atenolol | > 3000 | 0 (if the frequency modification was comprised between +6 and -6) | +++ (reduction of 30 to 50 mm Hg) | 34 | 5.69 -log CI50 (M) | active β-agents on β cardiac receptors | 21.4 | 3 (if 6.00≥pD2 ≥5.51) | 2 (if 6.40≥pD2 ≥6.01) | – | – | – | – | –
2 | CCCCCCCCNCC(O)COc1ccc(-c2nc3ccccc3[nH]2)cc1 (stereo not shown) [Compound 2, 2-[4-(3-n-octylamino-2-hydroxypropoxy)phenyl]benzimidazole] | – | – | 6.46 -log CI50 (M) | – | – | – | > 300 | – | 0 (reduction <10 mm Hg) | – | 6.64 -log CI50 (M) | – | – | – | – | active | active | – | – | –
3 | CC(C)NCC(O)COc1ccc(-c2nc3ccccc3[nH]2)cc1 (stereo not shown) [Compound 1, 2-[4-(3-isopropylamino-2-hydroxypropoxy)phenyl]benzimidazole] | 35.5 | 28800 | 5.18 -log CI50 (M) | 1.73 | 2140 times | important cardioselectivity; also recorded: much higher than that of metopropol and atenolol | 2300 | 0 (if the frequency modification was comprised between +6 and -6) | ++++ (reduction>50 mm Hg) | 174 | 5.21 -log CI50 (M) | active β-agents on β cardiac receptors | 13.5 | 3 (if 6.00≥pD2 ≥5.51) | 2 (if 6.40≥pD2 ≥6.01) | active | – | demonstrated | blocks stimulation of cardiac receptors | without affecting that of peripheral β2 receptors
